Consider 19 compounds from patent US10328053B2 (Gilead Sciences, Inc., priority 2016, dated 2019).

Data set [1] deals with HBV AD38 viral particles in HepG2 cell line overexpressing NTCP. The experiment in a line: HBV DNA Quantification Assay. Conditions: Hepatitis B virus, HepG2, 120 h, HBV-infected HepG2-NTCP cells, 5 days incubation, HBV DNA in culture supernatant (QuantiGene 2.0); geometric mean of a minimum of four determinations. It counts as cell-based. As for the experimental part:
HBV DNA Quantification Assay
A HepG2 cell line overexpressing the HBV virus attachment receptor sodium-taurocholate cotransporting polypeptide (NTCP) was grown to confluency in DMEM growth medium, Dulbecco's Modified Eagle Medium without sodium pyruvate (Life Technologies, Rockville, Md.) supplemented with 10% FBS (Thermo Scientific, Waltham, Md.), 1% penicillin/streptomycin (Life Technologies, Rockville, Md.) and 2 mM L-glutamine (Life Technologies, Rockville, Md.) in T175 flasks. Cells were infected with HBV AD38 viral particles (Texcell, Frederick, USA) at 4000 genome equivalents per cell. After allowing viral infection to take place for 4 days, the infected cells were harvested from the flasks by trypsinization, washed twice with OptiMEM (Life Technologies, Rockville, Md.) and re-suspended in DMEM containing 2% FBS and 1% DMSO at a density of 0.25E6 cells/ml. Infected cells were seeded on 384 well collagen coated plates (Greiner, Austria) at a density of 20,000 cells/well containing serially diluted compounds of the present disclosure or DMSO (0.5%) in a final volume of 80 μl. The assay plates were incubated for a period of 5 days and the antiviral activity of the test compounds were assayed by detecting the presence of HBV DNA in the culture supernatant using the QuantiGene™ 2.0 nucleic acid quantification kit (Affymetrix, Santa Clara, Calif.).
The culture supernatant was harvested and treated with lysis buffer containing Proteinase K (Affymetrix, Santa Clara, Calif.). The supernatant was incubated with HBV viral DNA specific probes (Affymetrix, Santa Clara, Calif.) for 30 minutes at 55° C. This was followed by addition of 0.2M NaOH for 30 minutes at room temperature to denature the DNA, followed by addition of Neutralization buffer (Affymetrix, Santa Clara, Calif.). The resulting lysed and neutralized supernatant was then added to QuantiGene™ 2.0 384 well plates coated with capture oligonucleotides and incubated overnight at 55° C. The HBV specific probe set consists of Capture Extender oligonucleotides (CE's) and blocking probes. Following the overnight incubation, the wells were incubated for one hour sequentially with a Pre-Amplifier, Amplifier and Labeled probes conjugated to alkaline phosphatase with a wash step between incubations. After the final wash step, the alkaline phosphatase substrate (Luminol APS5) was added and the resulting luminescence signal was read in an EnVision Multilabel Plate Reader (PerkinElmer, Santa Clara, Calif.). The EC50 values were calculated from the fit of the dose—response curves to a four-parameter equation. All EC50 values represent geometric mean values of a minimum of four determinations.

A short description of data set [2]: Hepatic Stability Assay (in vitro half-life method). It counts as in vitro ADME. Details: dose or concentration left out as unconfirmed. Conditions: pooled cryopreserved hepatocytes, 37° C., 1×10^6 cells/mL, 0-6 hours, LC-MS/MS, 39.5 hours is the maximum detectable half life, read-out: t½ (converted). As for the experimental part:
Hepatic Stability Assay The metabolic stability of certain compounds disclosed herein was assessed in vitro in pooled cryopreserved hepatocytes using the in vitro half-life method. Incubations were at 37° C. and final concentrations in the incubations were 1×10^6 cells/mL and […] test concentration of the compound. Aliquots were sequentially removed after 0, 1, 3 and 6 hours and analyzed by LC-MS/MS. In vitro half-life was determined by measuring the rate of disappearance of the compound and then scaled to predicted hepatic clearance using the well-stirred model. […] As such, compounds having a value of 39.5 may have a half live that exceeds 39.5 hours.

Broadly, the EC50 is the concentration needed to bring the measured effect to its halfway point. `CC(C)(C)NC(=O)C(=O)c1c(Cl)c(C(=O)Nc2ccc(F)c(C#N)c2)n2c1CCC2` [Example 1, 7-(2-(tert-Butylamino)-2-oxoacetyl)-6-chloro-N-(3-cyano-4-fluorophenyl)-2,3-dihydro-1H-pyrrolizine-5-carboxamide] registered an EC50 in data set [1] of 0.0271 µM.
Compound `Cc1c(C(=O)C(=O)NC2(c3c[nH]nn3)CC2)c2n(c1C(=O)Nc1ccc(F)c(Cl)c1)CCC2` [Example 6, 7-(2-((1-(1H-1,2,3-Triazol-4-yl)cyclopropyl)amino)-2-oxoacetyl)-N-(3-chloro-4-fluorophenyl)-6-methyl-2,3-dihydro-1H-pyrrolizine-5-carboxamide] returned a concentration giving a half-maximal response (EC50) in data set [1] of 0.0111 µM. Besides, in data set [2], the half-life was 8.2 h.
Taken in the same sequence, the figures for `Cc1c(C(=O)C(=O)NC2(C(F)(F)F)COC2)c2n(c1C(=O)Nc1ccc(F)c(Cl)c1)CCC2` [Example 7, N-(3-chloro-4-fluorophenyl)-6-methyl-7-(2-oxo-2-((3-(trifluoromethyl)oxetan-3-yl)amino)acetyl)-2,3-dihydro-1H-pyrrolizine-5-carboxamide] were 0.0058 µM and 4.8 h.
Taken in the same sequence, the figures for `Cc1c(C(=O)C(=O)NC2(CNC3(C)CS(=O)(=O)C3)CC(F)(F)C2)c2n(c1C(=O)Nc1ccc(F)c(Cl)c1)CCC2` [Example 8, N-(3-chloro-4-fluorophenyl)-7-(2-((3,3-difluoro-1-(((3-methyl-1,1-dioxidothietan-3-yl)amino)methyl)cyclobutyl)amino)-2-oxoacetyl)-6-methyl-2,3-dihydro-1H-pyrrolizine-5-carboxamide] were 0.072 µM and 0.4 h.
Taken in the same sequence, the figures for `Cc1c(C(=O)C(=O)NC2(C(=O)NC3(C)CS(=O)(=O)C3)CC(F)(F)C2)c2n(c1C(=O)Nc1ccc(F)c(Cl)c1)CCC2` [Example 9, N-(3-chloro-4-fluorophenyl)-7-(2-((3,3-difluoro-1-((3-methyl-1,1-dioxidothietan-3-yl)carbamoyl)cyclobutyl)amino)-2-oxoacetyl)-6-methyl-2,3-dihydro-1H-pyrrolizine-5-carboxamide] were 0.103 µM and 11.7 h.
With `Cc1c(C(=O)C(=O)NC2(c3ccccc3)CC2)c2n(c1C(=O)Nc1cc(F)c(F)c(F)c1)CCC2` [Example 67, 6-methyl-7-(2-oxo-2-((1-phenylcyclopropyl)amino)acetyl)-N-(3,4,5-trifluorophenyl)-2,3-dihydro-1H-pyrrolizine-5-carboxamide], it took 0.0065 µM to reach a half-maximal effect in data set [1] (EC50).
The same measure, in the same setting: in the case of `CNC(=O)C(C)(C)NC(=O)C(=O)c1c(C)c(C(=O)Nc2ccc(F)c(Cl)c2)n2c1CCC2` [Example 82, N-(3-chloro-4-fluorophenyl)-6-methyl-7-(2-((2-methyl-1-(methylamino)-1-oxopropan-2-yl)amino)-2-oxoacetyl)-2,3-dihydro-1H-pyrrolizine-5-carboxamide] it was 0.133 µM; in that of `Cc1c(C(=O)C(=O)NC2(c3cnn[nH]3)CC2)c2n(c1C(=O)Nc1cccc(OC(F)(F)F)c1)CCC2` [Example 85, 7-(2-((1-(1H-1,2,3-triazol-5-yl)cyclopropyl)amino)-2-oxoacetyl)-6-methyl-N-(3-(trifluoromethoxy)phenyl)-2,3-dihydro-1H-pyrrolizine-5-carboxamide], 0.294 µM.
On the same count and under the same terms, in the case of `Cc1c(C(=O)C(=O)NC23CC(C(N)=O)(C2)C3)c2n(c1C(=O)Nc1ccc(F)c(Cl)c1)CCC2` [Example 106, 7-(2-((3-carbamoylbicyclo[1.1.1]pentan-1-yl)amino)-2-oxoacetyl)-N-(3-chloro-4-fluorophenyl)-6-methyl-2,3-dihydro-1H-pyrrolizine-5-carboxamide] it was 0.124 µM.
The same measure, in the same setting: in the case of `CNC(=O)C(C)(C)NC(=O)C(=O)c1c(C)c(C(=O)Nc2ccc(F)c(C(F)F)c2)n2c1CCC2` [Example 114, N-(3-(difluoromethyl)-4-fluorophenyl)-6-methyl-7-(2-((2-methyl-1-(methylamino)-1-oxopropan-2-yl)amino)-2-oxoacetyl)-2,3-dihydro-1H-pyrrolizine-5-carboxamide] it was 0.157 µM; in that of `CNC(=O)[C@@H](NC(=O)C(=O)c1c(C)c(C(=O)Nc2ccc(F)c(Cl)c2)n2c1CCC2)C(C)C` [Example 128, (S)—N-(3-chloro-4-fluorophenyl)-6-methyl-7-(2-((3-methyl-1-(methylamino)-1-oxobutan-2-yl)amino)-2-oxoacetyl)-2,3-dihydro-1H-pyrrolizine-5-carboxamide], 0.17 µM.
With `Cc1c(C(=O)C(=O)NC2(C#N)CC(F)(F)C2)c2n(c1C(=O)Nc1ccc(F)c(F)c1)CCC2` [Example 131, 7-(2-((1-cyano-3,3-difluorocyclobutyl)amino)-2-oxoacetyl)-N-(3,4-difluorophenyl)-6-methyl-2,3-dihydro-1H-pyrrolizine-5-carboxamide], the half-life in data set [2] was 7.6 h.
On the same count and under the same terms, under `Cc1c(C(=O)C(=O)N[C@](C)(CO)C(F)(F)F)c2n(c1C(=O)Nc1ccc(F)c(F)c1)CCC2` [Example 133, (R)—N-(3,4-difluorophenyl)-6-methyl-7-(2-oxo-2-((1,1,1-trifluoro-3-hydroxy-2-methylpropan-2-yl)amino)acetyl)-2,3-dihydro-1H-pyrrolizine-5-carboxamide] stands 12.5 h; under `Cc1c(C(=O)C(=O)NC2(c3c[nH]nn3)CC(F)(F)C2)c2n(c1C(=O)Nc1ccnc(C(F)F)c1F)C[C@H](F)C2` [Example 134, (R)-7-(2-((3,3-difluoro-1-(1H-1,2,3-triazol-4-yl)cyclobutyl)amino)-2-oxoacetyl)-N-(2-(difluoromethyl)-3-fluoropyridin-4-yl)-2-fluoro-6-methyl-2,3-dihydro-1H-pyrrolizine-5-carboxamide], 17.9 h.
Still for that read-out and setting: under `Cc1c(C(=O)C(=O)NC2(C(N)=O)CC(F)(F)C2)c2n(c1C(=O)Nc1cc(F)c(F)c(F)c1)CCC2` [Example 140, 7-(2-((1-carbamoyl-3,3-difluorocyclobutyl)amino)-2-oxoacetyl)-6-methyl-N-(3,4,5-trifluorophenyl)-2,3-dihydro-1H-pyrrolizine-5-carboxamide] stands 13.5 h; under `Cc1c(C(=O)C(=O)NC2(C)C[S+]([O-])C2)c2n(c1C(=O)Nc1ccc(F)c(F)c1)CCC2` (centres unmarked) [Example 145, N-(3,4-difluorophenyl)-6-methyl-7-(2-((3-methyl-1-oxidothietan-3-yl)amino)-2-oxoacetyl)-2,3-dihydro-1H-pyrrolizine-5-carboxamide], 9.7 h; under `Cc1c(C(=O)C(=O)NC2(C(F)(F)F)COC2)c2n(c1C(=O)Nc1ccnc(C(F)F)c1F)C[C@H](F)C2` [Example 150, (R)—N-(2-(difluoromethyl)-3-fluoropyridin-4-yl)-2-fluoro-6-methyl-7-(2-oxo-2-((3-(trifluoromethyl)oxetan-3-yl)amino)acetyl)-2,3-dihydro-1H-pyrrolizine-5-carboxamide], 16.6 h.
On the same count and under the same terms, under `Cc1c(C(=O)C(=O)N[C@]2(C)C[S@@+]([O-])C2)c2n(c1C(=O)Nc1ccc(F)c(F)c1)CCC2` [Example 151, N-(3,4-difluorophenyl)-6-methyl-7-(2-(((1r,3r)-3-methyl-1-oxidothietan-3-yl)amino)-2-oxoacetyl)-2,3-dihydro-1H-pyrrolizine-5-carboxamide] stands 5 h; under `Cc1c(C(=O)C(=O)N[C@]2(C)C[S@+]([O-])C2)c2n(c1C(=O)Nc1ccc(F)c(F)c1)CCC2` [Example 152, N-(3,4-difluorophenyl)-6-methyl-7-(2-(((1s,3s)-3-methyl-1-oxidothietan-3-yl)amino)-2-oxoacetyl)-2,3-dihydro-1H-pyrrolizine-5-carboxamide], 10.5 h.
